The record followed here is ChEMBL document CHEMBL1150847, “New lactone-containing metabolites from a marine-derived bacterium of the genus Streptomyces” (J Nat Prod, 2001).

In the assay the test system is Candida albicans. The assay can be described thus: Antifungal activity against Candida albicans by paper disk method. In kind it is functional, organism-based.

Calls of active or inactive are those of the source. No cut-off for these calls is given here.

For the compound `CC(=O)C(C)CCCCCC1C=CC(=O)O1` (configuration not stated), the outcome was Active.

As for `CC(C)(O)CCCCCC1C=CC(=O)O1` (configuration not stated), the outcome was Active. Turning to `CCCC[C@H]1C(=O)O[C@@H](C)[C@@H]1O`, the result was Active. Under `CCC(C)(O)CCCCCC1C=CC(=O)O1` (configuration not stated) stands “Active”.

Consider `CC(C)CC[C@@H]1C(=O)O[C@@H](C)[C@@H]1O`, for which the result was Active.

Consider `CCC(C)C[C@H]1C(=O)O[C@@H](C)[C@@H]1O` (some centres not stated), for which the result was Active. In the case of `CC(C)CC[C@H]1C(=O)O[C@@H](C)[C@@H]1O`, the outcome was Active.
